Results taken from patent US5744621A, “Irreversible HIV protease inhibitors, intermediates, compositions and processes for the preparation thereof” (Lucky Limited., priority 1992, dated 1998).

Tests used:
HIV-1 protease = molecular target: T1, HIV-1 protease (Human immunodeficiency virus type 1 group M subtype B, UniProt P04585); experiment: Assay for inhibitory effect on HIV protease (residual enzyme activity, HPLC of substrate cleavage); format: biochemical; conditions: pH 5.5; for Ki / kinact: HIV-1 protease 2.6 nM; for Ki: inhibition constant; for kinact: rate constant of covalent bond formation, read-out: kina (converted); for kinact/KI: second order rate constant, HIV-1 protease, read-out: kina /KI (converted)
T1 construct: 2.6 nM of HIV-1 protease
Protocol: The inhibitory effect on HIV protease of the compounds of the present invention was determined by the following method.
To a buffer solution comprising 50 mM sodium acetate, pH 5.5, 1 mM dithiothreitol(DTT), 1 mM ethylenediaminetetraacetate (EDTA), 0.75M ammonium sulfate, 0.2M sodium chloride and 0.1% NP40(NONIDET P-40; Sigma Chemical Co., U.S.A.), were added various concentrations of a compound selected from Compound Nos. 1 to 92 to prepare a preincubation solution. Inhibition reaction was started with the addition of 2.6 nM of HIV-1 protease to the preincubation solution. Each 10 μl of the reaction solution was taken at a given time interval and added to 80 μl of assay solution containing 100 μM of reaction substrate in the same buffer solution as above to assay for the residual enzyme activity. In this context, an oligopeptide(KM =20 μM) consisting of 11 amino acids, i.e., Ser-Ile-Ala-Glu-(p-NO2)-Phe-Leu-Val-Arg-Ala-Lys-His, was used as a reaction substrate, which oligopeptide was to be cleaved in two by the breakage of amide bond between (P--NO2)-Phe and Leu upon the attack of HIV protease. The reaction rate was determined by subjecting the substrate before the reaction and the product after the reaction to HPLC separation and then measuring the relative amount of the product, using the strong absorbance of (p--NO2)-Phe at 280 nm. The amount of reduction in enzyme activity according to the elapsed time were measured and the natural logarithmic values(ln) of the measured amounts were plotted against time to obtain a linear graph and kobs was calculated from the slope of the linear graph.
The inhibition constant was calculated according to the following equation: [formula] wherein: kobs is a rate constant indicating the rate of reduction in enzyme activity according to the elapsed time under the presence of a given concentration of inhibitor,
kina is a rate constant indicating the rate of chemical reaction forming covalent bond between an enzyme and an inhibitor in Michaelis-Menten complex,
KI is an inhibition constant indicating the dissociation rate of Michaelis-Menten complex into an enzyme and an inhibitor, and
[I] means the inhibitor concentration.
The above equation is applicable to an experiment carried out under the condition in which the concentration of inhibitor is far higher than that of enzyme(Steady State Kinetic). […] The inhibition constants KI and kina and second order rate constant kina /KI were obtained by inputting the value of [E]/([E]+[EI]+[EI']) into KINSIM/FITSIM program. FIG. 1 exemplifies a result of the experiment determining the binding ratio of enzymes and inhibitors, which result was obtained by reacting the enzyme and the inhibitor in various concentration ratios for a sufficient time period(at least for 30 minutes), and then plotting the relative activity of the remaining enzyme against [conc. of inhibitor]/[conc. of enzyme].

HIV-1 = experiment: Anti-viral activity: syncytium formation (Sup T1) or reverse transcriptase assay (H9); format: cell-based; conditions: Human immunodeficiency virus 1, SUP-T1
Protocol: The anti-viral activity of the compounds of the present invention was determined by measuring the concentration of the compounds that inhibits the proliferation of HIV by 50%(IC50) through a survey for syncytium formation or reverse transcriptase assay.
1×10^5 cells of each of H9(ATCC HTB 176) and Sup T1 cell lines were added to the wells of a 24-well microtiter plate and various concentrations so the compounds of the present invention were added thereto. 200 TCID50 (200-fold of 50% tissue culture infection dose) of HIV-1 inoculum and rpmi-1640 medium(Sigma Chemical Co., U.S.A) were added successively to the wells and the plate was incubated at 37° C. In case of Sup T1, the number of syncytium formed was investigated after 3 to 9 days. IC50 of each compound was determined by measuring the concentration of inhibitor that can reduce the number of syncytium by 50% compared with those formed in the same condition without the inhibitor.
In case of H9, three-quarters(3/4) of the culture medium in volume was refreshed every 3 days; and 6 ml of the culture fluid was centrifuged at 1000 rpm for 10 minutes. To 5 ml of the resulting supernatant were added 2.5 ml of 30% polyethyleneglycol(PEG, M.W. 6000-8000) and 0.4M NaCl. The resulting solution was allowed to stand at 0° C. overnight to precipitate virus particles. The solution was centrifuged at 2000 rpm for 45 minutes, the supernatant was discarded therefrom and the precipitate was diluted with 20 μl of a reverse transcriptase suspension buffer(50 mM tris-HCl, pH 7.5, 1 mM dithiothreitol, 20% glycerol, 0.25M KCl and 0.25% Triton X-100). The resulting suspension was stored in an Effendorf tube at -70° C. until used. A procedure of freezing said virus suspension for 2 minutes in dry ice and thawing same at 37° C. for 2 minutes was repeated three times and the resulting suspension was centrifuged at 4° C. The resulting supernatant was used in carrying out the reverse transcriptase assay.
10 μl of the said viral suspension was added to a solution of: 10 μl of buffer solution(250 mM tris-HCl, pH 7.5, 37.5 mM MgCl2, 0.25% triton X-100), 1.2 μl of 200 mM dithiothreitol, 5 μl of 10 μM oligo(dT)-poly(A)(Boeringer Manheim, 12-18 oligomer), 1 μl(1 μCi) of ^3 H-TTP(Thymidinetri-phosphate) and 23.6 μl of water; and the resulting mixture was placed at 37° C. After 1 hour, the mixture was poured onto a WHATMAN DEB1 filter and the filter was washed three times with 5 ml of 2×SSC buffer solution(17.53 g of sodium chloride, 8.82 g of sodium citrate, pH 7.0, 1 liter of water) for about 10 minutes each time and twice with 95% ethanol for 10 seconds. The filter was put onto aluminium foil and dried with an infra-red lamp. The amount of radioactivity was counted using a liquid scintillation counter. IC50 of each compound was determined by measuring the concentration of inhibitor that can reduce the activity of reverse transcriptase by 50%.

[1] = Cytotoxicity in H9 or Sup T1 cells (trypan blue dye exclusion); format: cell-based; conditions: human; concentration that causes death of cells by 50%; H9 or Sup T1 cells, 37° C; read-out: CT50 (the source's name)
Protocol: To determine the cytotoxicity of the compounds of the present invention, 0.1 μM to 100 μM of the novel compounds were added to H9 cell or Sup T1 cell and the mixture was cultured on a rpmi-1640 medium at 37° C. The medium was refreshed every 3 days and the extent of cell proliferation was observed using Hemacytometer according to the trypan blue dye exclusion technique which is well known in the art. CT50 (i.e., concentration that causes death of cells by 50%) was determined. For reference, AZT(Burrows-Wellcome), A-75925 (Abbott, C2 symmetric compound) and Ro-31-8959(F. Hofmann-La Roche) were used as control compounds.

Row | Compound | Ki (HIV-1 protease) | IC50 (HIV-1) | CC50 [1] | kinact (HIV-1 protease) | kinact/KI (HIV-1 protease)
1 | CC[C@H](C)[C@H](NC(=O)C[C@@H]1O[C@@H]1[C@H](CC1CCCCC1)NC(=O)[C@@H](NC(=O)N(C)Cc1ccccn1)C(C)C)C(=O)OC [compound 39, N-{5-L-[[N,N-(2-pyridylmethyl)(methyl)-amino]carbonylvalinyl]amino-(4R, R3S)-epoxy-6-(cyclohexylmethyl)-hexanoyl}-L-isoleucine methyl ester] | > 10000 nM | 1000 nM | > 100000 nM | – | –
2 | CC[C@H](C)[C@H](NC(=O)C[C@@H]1O[C@@H]1[C@H](Cc1ccccc1)NC(=O)[C@H](CC(N)=O)NC(=O)c1ccc2ccccc2n1)C(=O)NO [compound 40] | 33 nM | 700 nM | > 100000 nM | 0.00417 s⁻¹ | 1270 M⁻¹ s⁻¹
3 | CC(C)[C@H](Cc1ccccc1)NC(=O)C[C@@H]1O[C@@H]1[C@H](Cc1ccccc1)NC(=O)[C@H](CC(N)=O)NC(=O)c1ccc2ccccc2n1 [compound 42, [[(5S)-[N-(2-quinolinecarbonyl)-L-asparaginyl]amino]-(4R,3S)-epoxy-6-phenyl-1-hexanoyl]-[(2S)-[1-phenyl-3-methyl]butyl]amide] | 0.8 nM | 20 nM | > 100000 nM | 0.0433 s⁻¹ | 5.5e+07 M⁻¹ s⁻¹
4 | CC(C)[C@@H](NC(=O)C[C@@H]1O[C@@H]1[C@H](Cc1ccccc1)NC(=O)[C@H](CC(N)=O)NC(=O)c1ccc2ccccc2n1)c1ccccc1 [compound 43] | 3.2 nM | 50 nM | > 100000 nM | 0.0283 s⁻¹ | 88300 M⁻¹ s⁻¹
5 | CC(C)[C@H](CCc1ccccc1)NC(=O)C[C@@H]1O[C@@H]1[C@H](Cc1ccccc1)NC(=O)[C@H](CC(N)=O)NC(=O)c1ccc2ccccc2n1 [compound 44] | 11 nM | 300 nM | > 100000 nM | 0.0417 s⁻¹ | 3.83e+06 M⁻¹ s⁻¹
6 | CC(C)[C@H](CCCc1ccccc1)NC(=O)C[C@@H]1O[C@@H]1[C@H](Cc1ccccc1)NC(=O)[C@H](CC(N)=O)NC(=O)c1ccc2ccccc2n1 [compound 45] | 1.2 nM | 200 nM | > 100000 nM | 0.04 s⁻¹ | 3.33e+07 M⁻¹ s⁻¹
7 | CC(C)C(NC(=O)C[C@@H]1O[C@@H]1[C@H](Cc1ccccc1)NC(=O)[C@H](CC(N)=O)NC(=O)c1ccc2ccccc2n1)C(C)C [compound 46] | 0.9 nM | 40 nM | > 100000 nM | 0.00267 s⁻¹ | 3000 M⁻¹ s⁻¹
8 | CC(C)[C@H](NC(=O)C[C@@H]1O[C@@H]1[C@H](Cc1ccccc1)NC(=O)[C@H](CC(N)=O)NC(=O)c1ccc2ccccc2n1)c1ccccc1 [compound 47] | 12 nM | 70 nM | > 100000 nM | 0.0383 s⁻¹ | 3.17e+06 M⁻¹ s⁻¹
9 | CC(C)C(Cc1ccccc1)NC(=O)C[C@@H]1O[C@@H]1[C@H](Cc1ccccc1)NC(=O)[C@H](CC(N)=O)NC(=O)c1ccc2ccccc2n1 (stereo partly drawn) [compound 48] | 600 nM | 500 nM | ~5000 nM | 0.035 s⁻¹ | 58300 M⁻¹ s⁻¹
10 | CC(C)[C@@H](CCc1ccccc1)NC(=O)C[C@@H]1O[C@@H]1[C@H](Cc1ccccc1)NC(=O)[C@H](CC(N)=O)NC(=O)c1ccc2ccccc2n1 [compound 49] | 800 nM | > 5000 nM | > 100000 nM | 0.03 s⁻¹ | 38300 M⁻¹ s⁻¹
11 | CC(C)[C@@H](CCCc1ccccc1)NC(=O)C[C@@H]1O[C@@H]1[C@H](Cc1ccccc1)NC(=O)[C@H](CC(N)=O)NC(=O)c1ccc2ccccc2n1 [compound 50] | 950 nM | > 5000 nM | > 100000 nM | 0.025 s⁻¹ | 26700 M⁻¹ s⁻¹
12 | NC(=O)C[C@H](NC(=O)OCc1ccccc1)C(=O)N[C@@H](Cc1ccccc1)[C@H]1O[C@H]1CCc1ccccc1 [compound 52, 2-L-(N-benzyloxycarbonyl-L-asparaginyl)amino-(3R,4S)-epoxy-1,6-diphenylhexane] | 100 nM | 700 to 1200 nM | > 100000 nM | 0.0005 s⁻¹ | 5000 M⁻¹ s⁻¹
13 | CC(C)[C@H](NC(=O)OCc1ccccc1)C(=O)N[C@@H](Cc1ccccc1)[C@H]1O[C@H]1CCc1ccccc1 [compound 53, 2-L-(N-benzyloxycarbonyl-L-valinyl)amino-(3R,4S)-epoxy-1,6-diphenylhexane] | 91 nM | 1000 to 1500 nM | > 100000 nM | 0.0015 s⁻¹ | 16500 M⁻¹ s⁻¹
14 | NC(=O)C[C@H](NC(=O)COc1cccc2ccccc12)C(=O)N[C@@H](Cc1ccccc1)[C@H]1O[C@H]1CCc1ccccc1 [compound 61, 2-L-(N-1-naphthoxyacetyl-L-asparaginyl)amino-(3R,4S)-epoxy-1,6-diphenylhexane] | 250 nM | 1000 to 2000 nM | > 100000 nM | 0.0005 s⁻¹ | 2000 M⁻¹ s⁻¹
15 | NC(=O)C[C@H](NC(=O)c1ccc2ccccc2n1)C(=O)N[C@@H](Cc1ccccc1)[C@H]1O[C@H]1CCc1ccccc1 [compound 62, 2-L-(N-2-quinolinecarbonyl-L-asparaginyl)amino-(3R,4S)-epoxy-1,6-diphenylhexane] | 130 nM | 200 to 700 nM | > 100000 nM | 0.00183 s⁻¹ | 14200 M⁻¹ s⁻¹
16 | NC(=O)C[C@H](NC(=O)c1cnc2ccccc2n1)C(=O)N[C@@H](Cc1ccccc1)[C@H]1O[C@H]1CCc1ccccc1 [compound 63, 2-L-(N-quinoxaline-2-ylcarbonyl-L-asparaginyl)amino-(3R,4S)-epoxy-1,6-diphenylhexane] | 250 nM | 1000 to 2000 nM | > 100000 nM | 0.00483 s⁻¹ | 20000 M⁻¹ s⁻¹
